Measurements published in patent EP0155872A1, “Process for reducing the lignin content of plants, and compositions for putting it into use” (priority 1984, dated 1985).
“And” between values parts separate entries of the source, which are not always exact repeats. Equal entries are not always repeated.

Key:
CAD de peuplier [1] = target: T1, CAD de peuplier (Populus deltoides, UniProt P31657); experiment: In vitro inhibition of isolated poplar cinnamyl alcohol dehydrogenase (CAD) at 2 mM; format: biochemical; conditions: mode of action study
T1 construct: CAD de peuplier isolée selon la méthode deSARNI et al,1984; from tissue; host or cells: poplar plant material
T1 sequence (P31657 1-357): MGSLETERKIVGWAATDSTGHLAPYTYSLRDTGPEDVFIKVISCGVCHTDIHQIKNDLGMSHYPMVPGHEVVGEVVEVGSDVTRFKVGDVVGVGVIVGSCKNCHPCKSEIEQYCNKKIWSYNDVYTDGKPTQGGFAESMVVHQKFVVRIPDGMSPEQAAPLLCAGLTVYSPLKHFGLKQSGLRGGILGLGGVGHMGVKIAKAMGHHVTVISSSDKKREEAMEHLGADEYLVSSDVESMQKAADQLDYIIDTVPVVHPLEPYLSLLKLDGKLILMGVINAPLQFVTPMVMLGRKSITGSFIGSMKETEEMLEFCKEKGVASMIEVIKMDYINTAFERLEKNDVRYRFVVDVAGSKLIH

plants de maïs [2] = experiment: Cell-wall polysaccharide content of treated maize plants; format: in vivo; conditions: plants âgés de 30 jours; 80 µM
Procedure: (§1) Les différentes études dont les résultats sont rapportés ci-après ont été réalisées à partir de plants de mais âgés de 30 jours et traités par l'OHPAS et le NH2PAS à la concentration de 80 µM.
Le dosage de l'ensemble des polysaccharides pariétaux mais également de la fraction cellulosique n'a révélé aucune différence significative entre les plants témoins et les plants traités.

plants de mais [3] = experiment: Soluble phenolic compounds of treated maize plants; format: in vivo; conditions: plants âgés de 30 jours, 80 µM; for FLAVONOIDES / PHENOLS SIMPLES: mean of 3
Procedure: as §1
Le traitement des plants par les inhibiteurs ne modifie pas les teneurs en ces composés comme le montrent les résultats rapportés dans le tableau 6 ci-après. Cependant, on constate une baisse importante (40% avec l'OHPAS) des quantités de flavonoïdes.

plants de maïs [4] = experiment: Growth of maize plants treated with the inhibitors (weights, water content); format: in vivo
Procedure: Des plants de maïs ont été traités pendant 10, 20 ou 30 jours par l'OHPAS et le NH2PAS à deux concentrations (80 et 160 µM).
Les .inhibiteurs sont ajoutés au milieu nutritif.
Les cultures sur vermiculite (20 plants) sont arrosées quotidiennement par 250 ml de milieu (avec ou sans inhibiteurs). Les semis constituent le temps 0 de la culture, l'addition des inhibiteurs au milieu nutritif est réalisée dès l'émergence de la partie aérienne (2 à 3 jours). Les différentes caractéristiques des plants sont estimées après 10, 20 ou 30 jours.
Le traitement par les deux inhibiteurs conduit à des plants de maïs dont les caractéristiques pondérales et les teneurs en eau sont données dans le tableau 4. L'analyse des résultats ne montre aucune différence significative entre les plants traités et les plants témoins. De même, les tailles et l'aspect morphologique des différents lots sont similaires. Toutefois, on constate que le port dressé des maïs est légèrement affecté.

CAD de peuplier [5] = target: T1, CAD de peuplier; experiment: In vitro inhibition of isolated poplar cinnamyl alcohol dehydrogenase (CAD) at 2 mM; format: biochemical; conditions: 2mM, CAD de peuplier; for inhibition at 2000 µM: read-out: Inhibition à 2mM %
Source text: Après réacidification à pH2 par de l'acide chlorhydrique 3N et centrifugation, le surnageant contenant les acides cinnamiques est séparé du résidu. Les "poudres alcool-benzène" ainsi hydrolysées sont lavées par de l'eau distillée jusqu'à pH neutre et séchées, sous vide dans un dessiccateur en présence de silica.-gel. Les teneurs en lignines sont estimées par la méthode gravimétriques de KLASON (Tappi Standard method Tl2m) modifiée par EFFLAND. Tappi, 60, p 143-144, 1977. On rapporte dans le tableau 1) suivant les résultats obtenus concernant l'effet mesuré in vitro d'inhibiteurs selon l'invention à une concentration de 2mM vis-à-vis de la CAD de peuplier isolée selon la méthode deSARNI et al,1984,EUROP JOURNAL OF BIOCHEMISTRY, 18(1),139, 259-265 On indique également dans ce tableau les résultats obtenus avec des composés portant des substitutions différentes de ceux mis enoe uvre dans l'invention. Les chiffres indiqués entre parenthèses a côté des formules correspondent aux composés identifiés dans les exemples de préparation 2 et 3.
On rapporte dans le tableau 2 suivant les pourcentages d'inhibition de la CAD obtenus en utilisant, à raison de 2 mM, différents composés capables de complexer Zn.

plants de luzerne = experiment: Lignin content of 30-day alfalfa plants; format: in vivo; conditions: plants de luzerne de 30 jours
Source text: 6) Effets des inhibiteurs sur la teneur en lignines de plants de luzerne de 30 jours : • Le protocole est le même que celui décrit pour les plants de mais.
On rapporte dans le tableau 7 ci-après les pourcentages d'inhibition obtenus en fonction de la concentration en produit.

plants de mais [6] = experiment: Primary metabolism of treated maize plants (soluble proteins, chlorophylls, nucleic acids); format: in vivo; conditions: plants âgés de 30 jours; 80 µM
Procedure: as §1
Afin d'estimer l'action de l'OHPAS et du NH2PAS sur le métabolisme primaire, les teneurs de trois classes de composés ont été estimées : les protéines solubles, les chlorophyllles et les acides nucléiques.

[7] = 10 jours de culture, 160 µm en inhibiteurs
[8] = 10 jours de culture, concentration not given
[9] = 10 jours de culture, concentration not given, mean of 20 plants
[10] = 20 jours de culture, 160 µm en inhibiteurs
[11] = 20 jours de culture, concentration not given
[12] = 30 jours de culture, 160 µm en inhibiteurs
[13] = 30 jours de culture, concentration not given

Row | SMILES | réversibilité de l'inhibition de la CAD (CAD de peuplier [1]) | synthèse de la fraction polysaccharidique de la paroi (plants de maïs [2]) | % PERTE (phénols simples) (plants de mais [3]) [%] | FLAVONOIDES (plants de mais [3]) | PHENOLS SIMPLES (plants de mais [3]) | Poids matériel frais g/plant (plants de maïs [4]; [7]) | Poids matériel sec g/plant (plants de maïs [4]; [7]) | Teneur en eau g/g de poids sec (plants de maïs [4]; [7]) | Poids matériel sec g/plant (plants de maïs [4]; [8]) | Teneur en eau g/g de poids sec (plants de maïs [4]; [8]) | Poids matériel frais g/plant (plants de maïs [4]; [9]) | Poids matériel frais g/plant (plants de maïs [4]; [10]) | Poids matériel sec g/plant (plants de maïs [4]; [10]) | Teneur en eau g/g de poids sec (plants de maïs [4]; [10]) | Poids matériel frais g/plant (plants de maïs [4]; [11]) | Poids matériel sec g/plant (plants de maïs [4]; [11]) | Teneur en eau g/g de poids sec (plants de maïs [4]; [11]) | Poids matériel frais g/plant (plants de maïs [4]; [12]) | Poids matériel sec g/plant (plants de maïs [4]; [12]) | Teneur en eau g/g de poids sec (plants de maïs [4]; [12]) | further results
1 | CC(C)(C)OC(=O)C[S+]([O-])Nc1ccccc1O (stereo not drawn) [composé 2, N-(o -hydroxy phényl)sulfinamoyl acétate de tertiobutyle] | faiblement réversible | n'apparaîssent pas affecter | 0 | 28 ± 11 mg d'acide gallique par g de matériel | 107 ± 8 mg d'acide gallique par g de matériel | 0,98 g/plant | 0,083 g/plant | 10,81 g/g de poids sec | 0,103 g/plant | 18,40 g/g de poids sec | 2,00 g/plant | 2,98 g/plant | 0,300 g/plant | 8,93 g/g de poids sec | 3,20 g/plant | 0,318 g/plant | 9,06 g/g de poids sec | 4,52 g/plant | 0,429 g/plant | 9,53 g/g de poids sec | % PERTE (flavonoïdes) (plants de mais [3]; listed as OHPAS): 40% and 42%; Poids matériel frais g/plant (plants de maïs [4]; [13]): 4,65 g/plant; Poids matériel sec g/plant (plants de maïs [4]; [13]): 0,420 g/plant; Teneur en eau g/g de poids sec (plants de maïs [4]; [13]): 10,07 g/g de poids sec; inhibition at 2000 µM (CAD de peuplier [5]): 90%; % d'inhibition (teneur en lignines) (plants de luzerne; 25 µM): 13%; % d'inhibition (teneur en lignines) (plants de luzerne; 50 µM): 31%; ADN (mg/g PS) (plants de mais [6]): 1,35 ± 0,6 mg/g PS; ARN (mg/g PS) (plants de mais [6]): 21,08 ± 0,3 mg/g PS; Chlorophylles (mg/g PS) (plants de mais [6]): 7,80 ± 0,3 mg/g PS; Protéines solubles (mg/g PS) (plants de mais [6]): 49,50 ± 1 mg/g PS
2 | CC(C)(C)OC(=O)C[S+]([O-])Nc1ccccc1N (stereo not drawn) [composé 5, N-(o-Amino phényl)Sulfinamoyl Acétate de tertiobutyle] | faiblement réversible | n'apparaîssent pas affecter | 0 | 25 ± 14 mg d'acide gallique par g de matériel | 101 ± 10 mg d'acide gallique par g de matériel | 1,00 g/plant | 0,088 g/plant | 13,36 g/g de poids sec | 0,108 g/plant | 15,70 g/g de poids sec | 1,80 g/plant | 3,25 g/plant | 0,321 g/plant | 9,12 g/g de poids sec | 3,00 g/plant | 0,298 g/plant | 9,07 g/g de poids sec | 4,80 g/plant | 0,458 g/plant | 9,48 g/g de poids sec | % PERTE (flavonoïdes) (plants de mais [3]): 48%; Poids matériel frais g/plant (plants de maïs [4]; [13]): 4,40 g/plant; Poids matériel sec g/plant (plants de maïs [4]; [13]): 0,438 g/plant; Teneur en eau g/g de poids sec (plants de maïs [4]; [13]): 9,04 g/g de poids sec; Inhibition à 2mM % (CAD de peuplier [5]; 2000 µM): 80%; inhibition at 2000 µM (CAD de peuplier [5]): 90%; % d'inhibition (teneur en lignines) (plants de luzerne; 25 µM): 20%; % d'inhibition (teneur en lignines) (plants de luzerne; 50 µM): 17%; ADN (mg/g PS) (plants de mais [6]): 1,38 ± 0,7 mg/g PS; ARN (mg/g PS) (plants de mais [6]): 19,81 ± 0,2 mg/g PS; Chlorophylles (mg/g PS) (plants de mais [6]): 7,69 ± 0,3 mg/g PS; Protéines solubles (mg/g PS) (plants de mais [6]): 49,30 ± 2 mg/g PS
